Reference: patent US11053204B2, “Pyrimidinyloxy benzene derivatives as herbicides” (FMC Corporation, priority 2015, dated 2021)

Legend:
Assay type in all cases: in vivo
[1] = test system: barnyardgrass (Echinochloa crus-galli); experiment: Test A postemergence, visual injury rating; conditions: 0 is no effect, 100 is complete control; for Barnyardgrass plant response rating: 0 to 100 scale, approximately 10 days
In short: (§1)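 Pre- and postemergence greenhouse screen. Soil: loam + sand. Spray carrier: solvent mixture, non-phytotoxic, with surfactant. Post timing at 1–2 leaves, height 2–10 cm. Readout: visual injury on a 0–100 scale roughly 10 days after application, untreated plants as reference.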

kochia (Kochia scoparia) [2] = experiment: Test A postemergence, visual injury rating
In short: as §1

corn (Zea mays) = experiment: Test A postemergence, visual injury rating
In short: as §1

[3] = test system: galium (catchweed bedstraw, Galium aparine); experiment: Test A postemergence, visual injury rating
In short: as §1

[4] = test system: blackgrass (Alopecurus myosuroides); experiment: Test A postemergence, visual injury rating
In short: as §1

[5] = test system: pigweed (Amaranthus retroflexus); experiment: Test A postemergence, visual injury rating
In short: as §1

[6] = test system: wheat (Triticum aestivum); experiment: Test A postemergence, visual injury rating
In short: as §1

[7] = test system: giant foxtail (Setaria faberii); experiment: Test A postemergence, visual injury rating
In short: as §1

[8] = test system: Italian ryegrass (Lolium multiflorum); experiment: Test A postemergence, visual injury rating
In short: as §1

[9] = test system: ragweed (common ragweed, Ambrosia elatior); experiment: Test A postemergence, visual injury rating
In short: as §1

[10] = test system: surinam grass (Brachiaria decumbens); experiment: Test C preemergence, plant response rating
[11] = test system: barnyardgrass (Echinochloa crus-galli); experiment: Test A preemergence, visual injury rating
In short: as §1

kochia (Kochia scoparia) [12] = experiment: Test A preemergence, visual injury rating
In short: as §1

[13] = test system: pigweed (Amaranthus retroflexus); experiment: Test A preemergence, visual injury rating
In short: as §1

[14] = test system: giant foxtail (Setaria faberii); experiment: Test A preemergence, visual injury rating
In short: as §1

[15] = test system: Italian ryegrass (Lolium multiflorum); experiment: Test A preemergence, visual injury rating
In short: as §1

[16] = test system: ragweed (common ragweed, Ambrosia elatior); experiment: Test A preemergence, visual injury rating
In short: as §1

[17] = test system: pigweed, palmer (palmer pigweed, Amaranthus palmeri); experiment: Test C preemergence, plant response rating
kochia (Kochia scoparia) [18] = experiment: Test C preemergence, plant response rating
[19] = test system: wild mustard (Sinapis arvensis); experiment: Test C postemergence, plant response rating; conditions: for Mustard, Wild plant response rating: scale 0 to 100 (0 no effect, 100 complete control)
In short: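 Visual injury score, 0 = no effect, 100 = complete control, assigned against untreated controls after 13 to 15 d in the greenhouse. Compounds were applied in a surfactant-containing non-phytotoxic solvent mix, preemergence to seeded loam/sand or silt loam soil, or postemergence to 1- to 4-leaf plants (2 to 18 cm).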

[20] = 31 g ai/ha, 0 to 100 scale, 0 is no effect, 100 is complete control, approximately 10 days
[21] = 125 g ai/ha, 0 to 100 scale, 0 is no effect, 100 is complete control, approximately 10 days
[22] = 125 g ai/ha, 0 is no effect, 100 is complete control
[23] = 31 g ai/ha, 0 to 100 scale, 0 no effect, 100 complete control
[24] = 125 g ai/ha, 0 to 100 scale (0 no effect, 100 complete control)
[25] = 31 g ai/ha, 0 to 100 scale (0 no effect, 100 complete control)

N#Cc1cccc(Oc2ncc(Cl)cn2)c1COCCC(F)(F)F [Compound 80]
0: Wheat plant response rating [6, 20] | Ryegrass, Italian plant response rating [8, 20] | Plant response rating, Ryegrass, Italian [15, 23] | Plant response rating, Ragweed [16, 23]
40: Wheat plant response rating [6, 21]
50: Kochia plant response rating (kochia (Kochia scoparia) [2]; [20]) | Ryegrass, Italian plant response rating [8, 21] | Plant response rating, Surinam Grass ([10]; 31 g ai/ha, scale 0 to 100) | Ryegrass, Italian plant response rating [15, 24]
10: Corn plant response rating (corn (Zea mays); [20]) | Ragweed plant response rating [9, 20]
100: Pigweed plant response rating [5, 21] | Barnyardgrass plant response rating [11, 24] | Plant response rating, Kochia (kochia (Kochia scoparia) [12]; [23]) | Kochia plant response rating (kochia (Kochia scoparia) [12]; [24]) | Plant response rating, Pigweed [13, 23] | Pigweed plant response rating [13, 24] | Foxtail, Giant plant response rating [14, 24] | Plant response rating, Pigweed, Palmer ([17]; 62 g ai/ha, scale 0 to 100) | Plant response rating, Kochia (kochia (Kochia scoparia) [18]; 62 g ai/ha, scale 0 to 100) | Plant response rating, Kochia (kochia (Kochia scoparia) [18]; 125 g ai/ha, scale of 0 to 100)
60: Corn plant response rating (0 to 100 scale) (corn (Zea mays); [22]) | Galium plant response rating [3, 20] | Plant response rating, Surinam Grass ([10]; 62 g ai/ha, scale 0 to 100) | Plant response rating, Barnyardgrass [11, 23]
80: Pigweed plant response rating [5, 20] | Plant response rating, Mustard, Wild ([19]; 31 g ai/ha, scale 0 to 100) | Mustard, Wild plant response rating ([19]; 62 g ai/ha)
85: Plant response rating, Pigweed, Palmer ([17]; 31 g ai/ha, scale 0 to 100)
98: Plant response rating, Surinam Grass ([10]; 125 g ai/ha, scale of 0 to 100) | Plant response rating, Pigweed, Palmer ([17]; 125 g ai/ha, scale of 0 to 100)
90: Barnyardgrass plant response rating (0 to 100 scale) ([1]; 125 g ai/ha) | Galium plant response rating (0 to 100 scale) [3, 22] | Blackgrass plant response rating (0 to 100 scale) [4, 22] | Foxtail, Giant plant response rating (0 to 100 scale) [7, 22] | Plant response rating, Foxtail, Giant [14, 23] | Mustard, Wild plant response rating ([19]; 125 g ai/ha)
30: Barnyardgrass plant response rating ([1]; 31 g ai/ha) | Blackgrass plant response rating [4, 20] | Foxtail, Giant plant response rating [7, 20] | Ragweed plant response rating [9, 21]
95: Plant response rating, Kochia (kochia (Kochia scoparia) [18]; 31 g ai/ha, scale 0 to 100)
20: Ragweed plant response rating [16, 24]
70: Kochia plant response rating (kochia (Kochia scoparia) [2]; [21])
75: Plant response rating, Mustard, Wild ([19]; 16 g ai/ha, scale of 0 to 100)

O=C(CCCC(F)(F)F)c1c(Cl)cccc1Oc1ncc(Cl)cn1 [Compound 143]
30: Corn plant response rating (corn (Zea mays); [21]) | Blackgrass plant response rating [4, 25] | Foxtail, Giant plant response rating [7, 25]
100: Kochia plant response rating (kochia (Kochia scoparia) [2]; [21]) | Galium plant response rating [3, 21] | Pigweed plant response rating [5, 25] | Pigweed plant response rating [5, 21] | Plant response rating, Barnyardgrass [11, 24] | Plant response rating, Kochia (kochia (Kochia scoparia) [12]; [23]) | Plant response rating, Kochia (kochia (Kochia scoparia) [12]; [24]) | Plant response rating, Foxtail, Giant [14, 23] | Plant response rating, Foxtail, Giant [14, 24] | Plant response rating, Pigweed, Palmer ([17]; 31 g ai/ha, scale 0 to 100) | Plant response rating, Pigweed, Palmer ([17]; 62 g ai/ha, scale 0 to 100) | Plant response rating, Pigweed, Palmer ([17]; 125 g ai/ha, scale of 0 to 100) | Plant response rating, Mustard, Wild ([19]; 16 g ai/ha, scale of 0 to 100) | Plant response rating, Mustard, Wild ([19]; 31 g ai/ha, scale 0 to 100) | Mustard, Wild plant response rating ([19]; 62 g ai/ha) | Mustard, Wild plant response rating ([19]; 125 g ai/ha)
70: Barnyardgrass plant response rating ([1]; 125 g ai/ha) | Foxtail, Giant plant response rating [7, 21] | Plant response rating, Ryegrass, Italian [15, 24]
20: Barnyardgrass plant response rating ([1]; 31 g ai/ha) | Wheat plant response rating [6, 21] | Ryegrass, Italian plant response rating [8, 25] | Ragweed plant response rating [9, 25] | Plant response rating, Barnyardgrass [11, 23] | Plant response rating, Ryegrass, Italian [15, 23]
0: Plant response rating, Ragweed [16, 23] | Plant response rating, Ragweed [16, 24]
35: Plant response rating, Surinam Grass ([10]; 62 g ai/ha, scale 0 to 100)
90: Kochia plant response rating (kochia (Kochia scoparia) [2]; [25]) | Galium plant response rating [3, 25] | Plant response rating, Kochia (kochia (Kochia scoparia) [18]; 62 g ai/ha, scale 0 to 100) | Plant response rating, Kochia (kochia (Kochia scoparia) [18]; 125 g ai/ha, scale of 0 to 100)
50: Ragweed plant response rating [9, 21] | Plant response rating, Surinam Grass ([10]; 125 g ai/ha, scale of 0 to 100)
80: Blackgrass plant response rating [4, 21] | Ryegrass, Italian plant response rating [8, 21] | Plant response rating, Kochia (kochia (Kochia scoparia) [18]; 31 g ai/ha, scale 0 to 100)
10: Corn plant response rating (corn (Zea mays); [25]) | Wheat plant response rating [6, 25] | Plant response rating, Surinam Grass ([10]; 31 g ai/ha, scale 0 to 100)
